In the NIST ThermoML archive (doi:10.1016/j.tca.2014.06.031):

How the values were obtained:
[1] = refractive index (Na D-line) (dimensionless); xn = mol fraction of the nth substance listed; conditions: 101 kPa, Liquid, Standard Abbe refractometry
[2] = xn = mol fraction of the nth substance listed; conditions: 101 kPa, Liquid; for speed of sound: Frequency=3 MHz, Sing-around technique in a fixed-path interferometer; for mass density: Vibrating tube method

CCCCCCC(=O)O [heptanoic acid] + CCCCC(=O)O
Conditions | mass density, [2] [kg/m3] | refractive index, [1] | speed of sound, [2] [m/s]
293.15 K, x1 = 0.0641 | 937.59 | 1.4099 | 1238.8
293.15 K, x1 = 0.1207 | 936.02 | 1.4111 | 1242.9
293.15 K, x1 = 0.2317 | 933.14 | 1.41293 | 1250.6
293.15 K, x1 = 0.3413 | 930.46 | 1.41469 | 1257.9
293.15 K, x1 = 0.4383 | 928.25 | 1.41617 | 1264.1
293.15 K, x1 = 0.5402 | 926.08 | 1.4176 | 1270.3
293.15 K, x1 = 0.6442 | 923.97 | 1.41903 | 1276.3
293.15 K, x1 = 0.7342 | 922.25 | 1.42021 | 1281.4
293.15 K, x1 = 0.8259 | 920.58 | 1.42135 | 1286.4
293.15 K, x1 = 0.9173 | 919 | 1.42244 | 1291.2
293.15 K, x1 = 0.962 | 918.26 | 1.42297 | 1293.4
293.15 K, x1 = 1 | 917.65 | 1.42336 | 1295.4
298.15 K, x1 = 0.0641 | 933.06 | 1.40789 | 1220.8
298.15 K, x1 = 0.1207 | 931.51 | 1.40904 | 1225
298.15 K, x1 = 0.2317 | 928.68 | 1.41092 | 1232.8
298.15 K, x1 = 0.3413 | 926.05 | 1.41267 | 1240.1
298.15 K, x1 = 0.4383 | 923.88 | 1.41413 | 1246.3
298.15 K, x1 = 0.5402 | 921.74 | 1.41562 | 1252.5
298.15 K, x1 = 0.6442 | 919.68 | 1.41705 | 1258.6
298.15 K, x1 = 0.7342 | 917.98 | 1.4182 | 1263.7
298.15 K, x1 = 0.8259 | 916.35 | 1.41936 | 1268.7
298.15 K, x1 = 0.9173 | 914.79 | 1.42048 | 1273.5
298.15 K, x1 = 0.962 | 914.07 | 1.42099 | 1275.8
298.15 K, x1 = 1 | 913.47 | 1.42138 | 1277.7
303.15 K, x1 = 0.0641 | 928.52 | 1.40585 | 1202.7
303.15 K, x1 = 0.1207 | 926.99 | 1.40698 | 1206.9
303.15 K, x1 = 0.2317 | 924.22 | 1.40886 | 1214.7
303.15 K, x1 = 0.3413 | 921.64 | 1.41062 | 1222.1
303.15 K, x1 = 0.4383 | 919.51 | 1.41208 | 1228.3
303.15 K, x1 = 0.5402 | 917.4 | 1.41356 | 1234.6
303.15 K, x1 = 0.6442 | 915.38 | 1.41498 | 1240.7
303.15 K, x1 = 0.7342 | 913.71 | 1.4162 | 1245.8
303.15 K, x1 = 0.8259 | 912.11 | 1.41733 | 1250.8
303.15 K, x1 = 0.9173 | 910.58 | 1.41842 | 1255.7
303.15 K, x1 = 0.962 | 909.87 | 1.41896 | 1257.9
303.15 K, x1 = 1 | 909.29 | 1.41935 | 1259.9
308.15 K, x1 = 0.0641 | 923.98 | 1.40383 | 1184.8
308.15 K, x1 = 0.1207 | 922.48 | 1.40496 | 1189
308.15 K, x1 = 0.2317 | 919.75 | 1.40684 | 1196.9
308.15 K, x1 = 0.3413 | 917.23 | 1.40857 | 1204.2
308.15 K, x1 = 0.4383 | 915.14 | 1.41004 | 1210.5
308.15 K, x1 = 0.5402 | 913.07 | 1.41151 | 1216.8
308.15 K, x1 = 0.6442 | 911.08 | 1.41294 | 1223
308.15 K, x1 = 0.7342 | 909.45 | 1.41413 | 1228.1
308.15 K, x1 = 0.8259 | 907.87 | 1.41531 | 1233.1
308.15 K, x1 = 0.9173 | 906.38 | 1.41643 | 1238
308.15 K, x1 = 0.962 | 905.68 | 1.41695 | 1240.3
308.15 K, x1 = 1 | 905.11 | 1.41733 | 1242.2
313.15 K, x1 = 0.0641 | 919.44 | 1.40175 | 1167
313.15 K, x1 = 0.1207 | 917.97 | 1.40283 | 1171.2
313.15 K, x1 = 0.2317 | 915.29 | 1.40471 | 1179.1
313.15 K, x1 = 0.3413 | 912.82 | 1.40649 | 1186.6
313.15 K, x1 = 0.4383 | 910.77 | 1.40796 | 1192.9
313.15 K, x1 = 0.5402 | 908.74 | 1.40944 | 1199.2
313.15 K, x1 = 0.6442 | 906.79 | 1.41086 | 1205.4
313.15 K, x1 = 0.7342 | 905.19 | 1.41209 | 1210.5
313.15 K, x1 = 0.8259 | 903.64 | 1.41324 | 1215.6
313.15 K, x1 = 0.9173 | 902.17 | 1.41437 | 1220.4
313.15 K, x1 = 0.962 | 901.49 | 1.4149 | 1222.7
313.15 K, x1 = 1 | 900.94 | 1.4153 | 1224.7

CCCCC(=O)O [pentanoic acid] + CCCC(=O)O
Conditions | mass density, [2] [kg/m3] | refractive index, [1] | speed of sound, [2] [m/s]
293.15 K, x2 = 0 | 939.41 | 1.4084 | 1234
293.15 K, x2 = 0.0472 | 940.14 | 1.40813 | 1232.3
293.15 K, x2 = 0.0938 | 940.86 | 1.4077 | 1230.6
293.15 K, x2 = 0.1944 | 942.46 | 1.40676 | 1226.9
293.15 K, x2 = 0.2928 | 944.08 | 1.40581 | 1223.3
293.15 K, x2 = 0.3946 | 945.82 | 1.40481 | 1219.5
293.15 K, x2 = 0.4922 | 947.56 | 1.40383 | 1215.8
293.15 K, x2 = 0.5938 | 949.45 | 1.40278 | 1211.9
293.15 K, x2 = 0.6929 | 951.38 | 1.40174 | 1208
293.15 K, x2 = 0.7973 | 953.48 | 1.4006 | 1203.8
293.15 K, x2 = 0.895 | 955.52 | 1.39949 | 1199.9
298.15 K, x2 = 0 | 934.85 | 1.40641 | 1216
298.15 K, x2 = 0.0472 | 935.55 | 1.40607 | 1214.3
298.15 K, x2 = 0.0938 | 936.26 | 1.40563 | 1212.6
298.15 K, x2 = 0.1944 | 937.82 | 1.40469 | 1208.9
298.15 K, x2 = 0.2928 | 939.4 | 1.40374 | 1205.2
298.15 K, x2 = 0.3946 | 941.11 | 1.40274 | 1201.4
298.15 K, x2 = 0.4922 | 942.81 | 1.40175 | 1197.6
298.15 K, x2 = 0.5938 | 944.66 | 1.4007 | 1193.6
298.15 K, x2 = 0.6929 | 946.54 | 1.39965 | 1189.7
298.15 K, x2 = 0.7973 | 948.6 | 1.3985 | 1185.4
298.15 K, x2 = 0.895 | 950.6 | 1.39744 | 1181.4
303.15 K, x2 = 0 | 930.29 | 1.40438 | 1197.9
303.15 K, x2 = 0.0472 | 930.96 | 1.40399 | 1196.2
303.15 K, x2 = 0.0938 | 931.65 | 1.40355 | 1194.5
303.15 K, x2 = 0.1944 | 933.18 | 1.4026 | 1190.7
303.15 K, x2 = 0.2928 | 934.73 | 1.40164 | 1187
303.15 K, x2 = 0.3946 | 936.39 | 1.40063 | 1183.1
303.15 K, x2 = 0.4922 | 938.05 | 1.39964 | 1179.3
303.15 K, x2 = 0.5938 | 939.87 | 1.39857 | 1175.2
303.15 K, x2 = 0.6929 | 941.71 | 1.39751 | 1171.2
303.15 K, x2 = 0.7973 | 943.73 | 1.39639 | 1166.9
303.15 K, x2 = 0.895 | 945.68 | 1.39533 | 1162.8
308.15 K, x2 = 0 | 925.73 | 1.40234 | 1179.9
308.15 K, x2 = 0.0472 | 926.37 | 1.4019 | 1178.2
308.15 K, x2 = 0.0938 | 927.04 | 1.40146 | 1176.5
308.15 K, x2 = 0.1944 | 928.53 | 1.40051 | 1172.7
308.15 K, x2 = 0.2928 | 930.05 | 1.39955 | 1168.9
308.15 K, x2 = 0.3946 | 931.68 | 1.39853 | 1164.9
308.15 K, x2 = 0.4922 | 933.3 | 1.39753 | 1161
308.15 K, x2 = 0.5938 | 935.08 | 1.39646 | 1156.9
308.15 K, x2 = 0.6929 | 936.87 | 1.39541 | 1152.9
308.15 K, x2 = 0.7973 | 938.85 | 1.39431 | 1148.5
308.15 K, x2 = 0.895 | 940.76 | 1.39326 | 1144.3
313.15 K, x2 = 0 | 921.16 | 1.4003 | 1162.1
313.15 K, x2 = 0.0472 | 921.78 | 1.39983 | 1160.4
313.15 K, x2 = 0.0938 | 922.44 | 1.39937 | 1158.6
313.15 K, x2 = 0.1944 | 923.89 | 1.39841 | 1154.8
313.15 K, x2 = 0.2928 | 925.37 | 1.39745 | 1151
313.15 K, x2 = 0.3946 | 926.97 | 1.39642 | 1146.9
313.15 K, x2 = 0.4922 | 928.55 | 1.39542 | 1143
313.15 K, x2 = 0.5938 | 930.29 | 1.39437 | 1138.9
313.15 K, x2 = 0.6929 | 932.04 | 1.39332 | 1134.7
313.15 K, x2 = 0.7973 | 933.98 | 1.39222 | 1130.2
313.15 K, x2 = 0.895 | 935.84 | 1.39118 | 1126
